The numbers were not newly measured in patent US6542858B1, “Pharmacokinetic-based drug design tool and method” (Lion Bioscience AG, priority 1998, dated 2003), which cites them from elsewhere.

For series [1] the following is noted: Plasma Kinetics; mass model parameter.

On to `Nc1nc2c(ncn2COC(CO)CO)c(=O)[nH]1.[Na]` [Gancyclovir, 9-(1,3-dihydroxy-2-propoxymethyl)guanine, monosodium salt], for which the in vivo biotransformation entry is “no in vivo biotransformation”. Further, in series [1], the k21 is given as 0.670. Besides, the absorption result (in vivo) was “poorly absorbed”.
